{
  "source": "patent US10106523B2",
  "about": "“Amide compound” (ASTELLAS PHARMA INC., priority 2014, dated 2018)",
  "key": {"rat EP4 receptor": {"biological_target": "rat EP4 receptor (Rattus norvegicus, UniProt P43114)", "sequence (P43114 whole entry)": "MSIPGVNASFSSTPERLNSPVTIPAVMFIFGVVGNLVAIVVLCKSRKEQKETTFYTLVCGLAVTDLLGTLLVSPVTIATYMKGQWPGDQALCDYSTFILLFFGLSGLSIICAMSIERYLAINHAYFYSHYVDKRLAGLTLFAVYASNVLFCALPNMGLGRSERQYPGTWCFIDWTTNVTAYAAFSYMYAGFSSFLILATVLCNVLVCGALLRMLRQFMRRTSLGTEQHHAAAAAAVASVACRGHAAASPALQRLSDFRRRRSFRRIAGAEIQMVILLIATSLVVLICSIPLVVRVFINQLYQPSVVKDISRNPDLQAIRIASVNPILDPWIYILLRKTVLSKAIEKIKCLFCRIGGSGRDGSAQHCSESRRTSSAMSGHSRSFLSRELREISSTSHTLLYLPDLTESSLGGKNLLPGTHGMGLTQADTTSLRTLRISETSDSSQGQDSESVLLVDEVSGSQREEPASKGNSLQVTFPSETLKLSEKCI", "test": "In vivo rat EP4 receptor antagonistic action (plasma TNF-α after LPS and EP4 agonist ONO-AE1-437)", "design": "from tissue; host or cells: whole animal (SD rat)", "conditions": "SD rats, 0.03 mg/kg po, ONO-AE1-437 0.01 mg/kg sc, LPS 0.01 mg/kg iv", "description": "Test Example 5: Evaluation Test of In Vivo Rat EP4 Receptor Antagonistic Action\nSD rats (male, 6-week old) under non-fasting conditions were used for the test. A test compound dissolved in a mixed solution of PEG 400: 20% Tween 80: 1 mol/L aqueous NaHCO3 solution=1:4:5 was orally administered (po) to the rat at a dose of 0.03 mg/kg (5 mL/kg). After 1 hour, an active metabolite (ONO-AE1-437 (CAS No. 256382-23-7)) of an EP4 agonist ONO-4819 dissolved in physiological saline was subcutaneously administered (sc) to the back of the rat at a dose of 0.01 mg/kg (5 mL/kg). After 30 minutes, Lipopolysaccharide (LPS, 0.01 mg/kg) was administered to the tail vein (2 mL/kg), and after 60 minutes, about 0.5 mL of blood was collected in a heparin-containing tube under anesthesia. The blood sample was centrifuged (1000×g, 10 minutes, 4° C.) to separate the plasma. The TNF-α concentration in the rat plasma was measured by an ELISA kit (DuoSet ELISA, R&D Systems). An inhibitory rate of the test compound group (n=5) with respect to the TNF-α production inhibitory action by the EP4 agonist was calculated by taking the TNF-α concentration of the group (n=5) not treated with ONO-AE1-437 as 100% and taking the TNF-α concentration of the group (n=5) treated with ONO-AE1-437 as 0%."}, "[1]": {"tested_on": "renin activity in rat plasma", "test": "Action on renin activity in rat plasma (PRA increase due to EP4 agonist ONO-AE1-437)", "type": "in vivo", "conditions": "SD rats, 0.3 mg/kg po; ONO-AE1-437 0.01 mg/kg sc", "description": "Test Example 6: Evaluation Test of Action on Renin Activity in Rat Plasma\nSD rats (male, 7-week old) under non-fasting conditions were used for the test. A test compound dissolved in a mixed solution of PEG 400:20% Tween 80:1 mol/L aqueous NaHCO3 solution=1:4:5 was orally administered (po) to the rat at a dose of 0.3 mg/kg (5 mL/kg). After 1 hour, an active metabolite (ONO-AE1-437) of an EP4 agonist ONO-4819 dissolved in physiological saline was subcutaneously administered to the back of the rat at a dose of 0.01 mg/kg (5 mL/kg). After 10 minutes, the rat was decapitated without anesthesia and about 2 mL of blood was collected in a tube containing 3 mg of EDTA.2Na. The blood sample was centrifuged (1000×g, 10 minutes, 4° C.) to separate the plasma. […] The Angiotensin I concentration in both samples was measured by an ELISA method, and a concentration obtained by subtracting a value of the blank reaction from the value of the sample incubated at 37° C. was taken as a renin activity in plasma (plasma renin activity (PRA)). By taking the PRA of the inhibitor rate of the group (n=5) not treated with ONO-AE1-437 as 100% and taking that of the group (n=4) treated with ONO-AE1-437 as 0%, the inhibitory rate of the test compound group (n=5) was calculated."}},
  "data": [
    {"smiles": "Cc1nn(Cc2cc3ccccc3cn2)c(C(=O)N[C@@H](C)c2ccc(C(=O)O)cc2)c1Br", "note": "[Compound A, 4-[(1S)-1-({[4-bromo-1-(isoquinolin-3-ylmethyl)-3-methyl-1H-pyrazol-5-yl]carbonyl}amino)ethyl]benzoic acid]", "values": [
      {"measurement": "Inhibition of the TNF-α production inhibitory action of the EP4 agonist ONO-AE1-437", "setting": "rat EP4 receptor", "result": 38, "unit": "%"},
      {"measurement": "Inhibition of the increase in PRA (plasma renin activity) due to the EP4 agonist ONO-AE1-437", "setting": "[1]", "result": 102, "unit": "%"}
    ]}
  ]
}
